Measurements taken from patent US6326465A, “Immunomodulatory polypeptides derived from the invariant chain of MHC class II” (The Johns Hopkins University, priority 1998, dated 2001).

Columns and labels:
[1] = system: Lewis syngeneic PHA blasts; assay: Lysis of PHA lymphoblast target cells by syngeneic GVHD effector T cells; format: cell-based, rat; conditions: target cells loaded with 10 uM; versus diluent treated target cells
Method: FIG. 1. Graph showing comparison of percent specific lysis conferred by truncated variants of CLIP. Lewis syngeneic PHA blasts were force-loaded with the truncated variants of CLIP (10 μmol/L, 1 hr, 4° C.) prior to assay. Effector T cells (nylon wool nonadherent) were derived from animals with syngeneic GVHD that were clonally expanded in thymectomized secondary Lewis recipients.
Truncated peptides from the rat MHC Class II invariant chain V0 : (sequence aa 82-103 […] (SEQ ID NO:1)), V1: aa 90-104 (SEQ ID NO:2), V2: 86-100 (SEQ ID NO:3), V3: 90-100(SEQ ID NO:4) were synthesized by Quality Controlled Biochemicals Co. (Hopkinton, Ma.) and purified by HPLC.^15,23 The peptides (>92% purity) were dissolved in RPMI 1640 prior to use. Force loading of CLIP was accomplished by incubating the cells in 10 μM of the peptide for 1 hr. at 4° C. […] Antibody was prepared to the CLIP peptide by Quality Controlled Biochemicals Co. The peptides were conjugated to keyhole limpet hemocyanin (KLH). Rabbits were immunized with the peptide-KLH conjugate. The antibody was affinity purified using peptide conjugated sepharose matrix columns.
We first evaluated whether CLIP in rats is recognized by the autoreactive T cells associated with CsA-induced syngeneic GVHD by comparing the lysis of target cells after various pretreatment conditions.
Target cells were loaded with the CLIP variants (10 uM) and evaluated for […]

tumor cells = assay: Cytokine modulation of CsA-induced SGVHD in the rat model; format: in vivo; conditions: for cure of animals: animals given 5×10^3 tumor cells; for enhancement of the antitumor effect of SGVHD: rat model
target cells = format: cell-based, rat
CRL 1662 myeloma cells = assay: Antitumor activity after adoptive transfer of syngeneic GVHD effector T cells; format: in vivo, rat; conditions: with syngeneic GVHD effector cells; […]10^4 CRL 1662 cells; cytokines for ten days
Method: Nylon wool nonadherent spleen cells (50×10^6) from Lou M animals with syngeneic GVHD were adoptively transferred into secondary Lou M recipients (irradiated, bone marrow reconstituted) challenged with 2.5×10^4 CRL 1662 myeloma cells. […] Survival was assessed and log tumor cell kill was estimated from dose response studies (see Table 6).

Substance | cure of animals (tumor cells) | enhancement of the antitumor effect of SGVHD (tumor cells) | also measured
KPCSP(R) | – | – | Enhancement of Target Cell Recognition [1]: +++ (enhancement representing at least a >25% increase in specific killing)
interferon-α | about half | 1-2 logs | –
staphylococcal enterotoxin β [SEB] | – | – | ability of effector T lymphocytes to recognize and lyse the target cells (target cells): completely inhibited; preventing recognition and lysis (target cells): ineffective
γ-interferon: cytokine, 50,000 U/d | about half | 1-2 logs | Estimated Log Tumor Cell Kill (CRL 1662 myeloma cells): 2.5-3.0
